Measurements reported in patent publication US20120264611A1, “Pesticide Preparations Containing Derivatives Of Pyrrolidone-4-Carboxylic Acid” (CLARIANT FINANCE (BVI) LIMITED, priority 2009, published 2012).

Assays:
[1] = test system: tomato plants (cv. Astona F1); experiment: Determination of phytotoxicity on tomato plants (auxiliaries sprayed without pesticide); format: in vivo
Description: The phytotoxicity is determined on tomato plants (cv. Astona F1), a species which, as is known, is sensitive to phytotoxic substances taken up via the leaf surface (“Phototoxicity of different classes of adjuvants”, H. de Ruiter, et al., Proceedings Fifth International Symposium on Adjuvants for Agrochemicals, 1998, Ed. P. McMullan, pp. 204-209).
Tomato plants (cv. Astona F1) are cultivated in a greenhouse under 14-hour light irradiation at a temperature of 18/12 (±0.5)° C. (day/night) and a relative atmospheric humidity of 70/80 (±5) % (day/night). 12 days after germination, the seedlings are transplanted into plastic pots having a diameter of 11 cm (one plant per pot) filled with a mixture of sand and soil (Soil No. 12, Colent b.v., Lent, the Netherlands) in a volume ratio of sand:soil=1:2.
The pots are placed on a subirrigation mat which was moistened daily with a nutrient solution of medium strength.
28 days after sowing, the plants were treated at the 4-leaf stage, each plant having a height of 15-17 cm. The auxiliary content of the spray solution was 0.5% (v/v or % by volume).
The spray solutions are applied to the plants using an air pressure-operated laboratory sprayer such that the resulting application rate is 200 l/ha.
The treated plants are scored visually after 2 and 8 days (DAT; DAT: days after treatment) and evaluated using a qualitative scale (1 to 5). Here, 1=no discoloration or necrosis of the leaves to 5=complete necrosis of the treated leaf surface. Moreover, the above-ground plant mass is determined after 8 days (fresh weight). In each case, the average is calculated, based on the number of treated plants.

[2] = test system: Wild oats (Avena fatua, AVEFA); experiment: Increase of the biological activity of glyphosate by adjuvants, greenhouse trial (tank mix method); format: in vivo; settings: 21 days
Source text: Here, 50% strength solutions are used. In the case of compound 1, triethanolamine is additionally added to dissolve the acid.
By mixing these tank mix solutions with a commercial aqueous solution of glyphosate isopropylammonium (comprising 62% by weight of the active compound glyphosate IPA salt; IPA: isopropylammonium) and further addition of water, a preparation according to the invention is formed. The ratio of glyphosate (based on the acid equivalent) to adjuvant corresponds to that which is also found in commercially available glyphosate formulations.
For easier monitoring of the adjuvant effects, reduced doses of glyphosate are used; the application rate is 135.2 g a.e./ha glyphosate IPA salt (corresponding to 4.0 mmol or 0.68 g a.e./l at a liquid volume of 200 l/ha). The abbreviation “a.e.” means “acid equivalent”.
The spray solutions comprise the following concentrations of adjuvant: 0.0141% (v/v).
Wild oats (Avena fatua, AVEFA) are cultivated in a greenhouse under 14 hours of light irradiation at a temperature of 18/12 (±0.5)° C. (day/night) and a relative atmospheric humidity of 70/80 (±5) % (day/night). Light is introduced via high-pressure mercury lamps and fluorescent tubes, resulting in a power of 70 W/m^2 (PAR; PAR: photosynthetically active radiation (400-700 nm)) on the leaf level. The plants are cultivated in plastic pots having a diameter of 11 cm, filled with a mixture of sand and soil (Soil No. 12, Colent b.v., Lent, the Netherlands) in a volume ratio of sand:soil=1:2.
The pots are placed on a subirrigation mat which is moistened daily with a nutrient solution of medium strength. After emergence, the AVEFA seedlings are divided into six plants per pot for the activity tests.
The spray solutions are used to carry out greenhouse trials. The effect of the adjuvants on the efficacy of glyphosate is tested.
The spray solutions are applied to the plants using an air pressure-operated laboratory sprayer, such that an application rate of 200 l/ha results.
Wild oats (AVEFA) are treated once they have reached the 2-3 leaf stage.
The efficacy of the herbicide is assessed after 21 days. To this end, the mass of the remaining above-ground plant parts (fresh weight (FW) in gram) is determined. This is shown in table 3, together with the calculated relative residual amount, compared to the untreated plant (in % by weight).

SMILES | Visual evaluation (DAT 2) ([1]; 2 days after treatment, qualitative scale 1 (no discoloration or necrosis of the leaves) to 5 (complete necrosis of treated leaf surface), average, auxiliary 0.5% (v/v), 200 l/ha, no pesticide) | Visual evaluation (DAT 8) ([1]; 8 days after treatment, qualitative scale 1 (no discoloration or necrosis of the leaves) to 5 (complete necrosis of treated leaf surface), average, auxiliary 0.5% (v/v), 200 l/ha, no pesticide) | Fresh weight ([1]; above-ground plant mass after 8 days, average, auxiliary 0.5% (v/v), 200 l/ha, untreated 8.6 g) [g] | Mass of the plants formed compared to the untreated plant (in words) ([1]; summary of table 2, after 8 days) | Phytotoxic reaction of the tomato plants (in words) ([1]; summary of table 2, auxiliary 0.5% (v/v)) | Test 1, fresh weight of remaining above-ground plant parts ([2]; glyphosate IPA salt 135.2 g a.e./ha, adjuvant 0.0141% (v/v), 200 l/ha, untreated 11.26) [g FW] | Mean of tests 1 and 2 ([2]; glyphosate IPA salt 135.2 g a.e./ha, adjuvant 0.0141% (v/v), 200 l/ha, untreated 12.97) [g FW] | Test 2, fresh weight of remaining above-ground plant parts ([2]; glyphosate IPA salt 135.2 g a.e./ha, adjuvant 0.0141% (v/v), 200 l/ha, untreated 14.67) [g FW] | Residual amount ([2]; calculated relative residual amount compared to the untreated plant (100)) [% by weight]
CCCCCCCC/C=C\CCCCCCCCN1CC(C(=O)O)CC1=O (stereo not drawn) [Compound 1, N-oleyl-2-pyrrolidone-4-carboxylic acid] | 1.1 | 1.5 | 8.6 | not reduced | at most minimal signs of a phytotoxic reaction | – | – | – | –
O=C(O)CNCP(=O)(O)O [Glyphosate, no adjuvant added, glyphosate isopropylammonium] | – | – | – | – | – | 9.63 | 11.54 | 13.45 | 89
